Measured values taken from ChEMBL document CHEMBL1133657, “Synthesis and pharmacological characterization of [(125)I]iodomethyllycaconitine ([(125)I]iodo-MLA). A new ligand for the alpha(7) nicotinic acetylcholine receptor” (J Med Chem, 2000).

Experiments:
Rattus norvegicus [1] = organism: Rattus norvegicus; assay: Bmax value(fmol/mg protein) was evaluated in rat brain using [3H]MLA
Rattus norvegicus [2] = organism: Rattus norvegicus; assay: Affinity constant Kd(nM) in rat brain cerebral cortex homogenates.
Rattus norvegicus [3] = organism: Rattus norvegicus; assay: Bmax value(fmol/mg )was evaluated in rat brain using [125I]iodo-MLA

| SMILES | Bmax (Rattus norvegicus [1]) [fmol/mg] | Kd (Rattus norvegicus [2]) [nM] | Bmax (Rattus norvegicus [3]) [fmol/mg] |
| --- | --- | --- | --- |
| [3H]c1cccc(N2C(=O)C[C@H](C)C2=O)c1C(=O)OC[C@@]12CC[C@H](OC)[C@@]34[C@@H]5C[C@H]6[C@H](OC)[C@@H]5[C@](O)(C[C@@H]6OC)[C@](O)([C@@H](OC)[C@H]13)[C@H]4N(CC)C2 [METHYLLYCACONITINE[3H] MLA] | 65 | 1.9 |  |
| CCN1C[C@]2(COC(=O)c3cc([125I])ccc3N3C(=O)C[C@H](C)C3=O)CC[C@H](OC)[C@@]34[C@@H]5C[C@H]6[C@H](OC)[C@@H]5[C@](O)(C[C@@H]6OC)[C@](O)([C@@H](OC)[C@H]23)[C@@H]14 |  |  | 68 |
